Measured values reported in patent US9663764B2, “Generation of cardiomyocytes from human pluripotent stem cells” (Wisconsin Alumni Research Foundation, priority 2011, dated 2017).

How the values were obtained:
Format in all cases: cell-based, human
[1] = test system: 19-9-11 ishcat-1 and ishcat-2 cells; assay: Growth factor free cardiac differentiation by CH followed by dox-induced β-catenin shRNA, cTnT flow cytometry
Protocol: cardiac directed differentiation via small molecules: Cells were dissociated and plated as described in the Activin/BMP4 protocol. When hPS cells maintained on Matrigel® or Synthemax plates achieved confluence, cells were treated with CH in RPMI/B27-insulin for 24 hr (day 0 to day 1). The medium was changed to RPMI/B27-insulin, followed by 2 μg/ml dox treatment at different times between day 1 and day 5 for transgenic cell lines. For genetically unmodified lines, 5 μM IWP2 (Tocris) or IWP4 (Stemgent) was added at day 3 and removed during the day 5 medium change. Cells were maintained in the RPMI/B27 starting from day 7, with the medium changed every 3 days. Flow Cytometry: Cells were dissociated into single cells and then fixed with 1% paraformaldehyde for 20 min at room temperature and stained with primary and secondary antibodies in PBS plus 0.1% Triton X-100 and 0.5% BSA. For the cell proliferation assay, a 17-hour pulse of BrdU was performed to identify dividing cardiomyocytes (Zhang et al., Circ. Res. 104, e30-41 (2009)). Data were collected on a FACSCaliber flow cytometer (Beckton Dickinson) and analyzed using FlowJo. Our results and prior studies (Ren et al., J. Mol. Cell. Cardiol. 51:280-287 (2011); Tran et al., Stem Cells 27:1869-1878 (2009); Wang et al., A.C.S. Chem. Biol. 6, 192-197 (2011); […] et al., Circ Res. 109:360-364 (2011)) indicate that induction of canonical Wnt signaling early and suppression of canonical Wnt signaling at later stages of differentiation enhance yield of cardiomyocytes. The inventors next sought to determine whether modulating Gsk3 and canonical Wnt signaling alone was sufficient to induce cardiogenesis. Undifferentiated hPS cells were cultured in RPMI/B27-insulin medium containing CH. CH was removed by medium exchange at day 1 and dox was added to the medium at various time points between […] and day 4. At day 5, the medium was replaced with RPMI/B27-insulin (FIG. 6A) and cardiomyocyte differentiation was assessed at day 15 by the percentage and yield of cTNT and/or MF20 expressing cells. In the 19-9-11 […]-1 line, 12 μM CH produced the most cTNT+ cells at day 15 without additional dox-induced β-catenin knockdown (FIG. 7A). The inventors then investigated the effect of the timing of dox treatment following addition of 12 μM CH. Addition of dox 36 hours following initiation of differentiation generated 95% cTNT+ cells with yields of approximately 15 cTNT+ cells per input iPSC (FIGS. 6B and 7B). A high yield of cTNT+ cells was also obtained using 19-9-11 […]-2 and three additional hPS cell lines (IMR90C4, 6-9-9, and H9) transduced with inducible β-catenin shRNA […]-1 (FIG. 7C).

[2] = test system: 19-9-11 shcat-2 and scramble lines; assay: Flow cytometry of Oct4 and brachyury in CH-treated 19-9-11 shcat-2 and scramble lines; details: for cells expressing Oct4: 4 days of CH (12 μM) in mTeSR1
Protocol: Flow Cytometry: Cells were dissociated into single cells and then fixed with 1% paraformaldehyde for 20 min at room temperature and stained with primary and secondary antibodies in PBS plus 0.1% Triton X-100 and 0.5% BSA. For the cell proliferation assay, a 17-hour pulse of BrdU was performed to identify dividing cardiomyocytes (Zhang et al., Circ. Res. 104, e30-41 (2009)). Data were collected on a FACSCaliber flow cytometer (Beckton Dickinson) and analyzed using FlowJo. To test whether induction of cardiomyocyte differentiation by GSK3 inhibitors requires β-catenin, the inventors treated the shcat-2 and scramble 19-9-11 lines with CH in mTeSR1 medium. While the shcat-2 line maintained an undifferentiated morphology, the scramble line appeared to undergo differentiation (FIG. 2E), similar to non-transduced lines treated with CH (FIGS. 1B and 2B). Induction of differentiation following CH treatment in the scramble control was further indicated by diminished SOX2 and NANOG expression at day 4 (FIG. 3C). […] After 4 days of CH treatment in mTeSR1, the percentage of cells expressing Oct4 decreased to 61% in the scramble line, while 98% of the shcat-2 cells expressed Oct4 (FIG. 3D). […] To better understand early mesoderm induction via GSK3 inhibition, the inventors analyzed expression of the early mesoderm gene T in scramble and shcat-2 19-9-11 lines. As CH concentration increased, the ratio of T expression in scramble to the shcat-2 line increased (FIG. 3E). Less than 2% of shcat-2 cells expressed brachyury upon exposure to different concentrations of CH treatment for 4 days.

[3] = test system: 19-9-11 shcat-2 and scramble lines; assay: RT-PCR/qPCR gene expression in CH-treated 19-9-11 shcat-2 and scramble lines
Protocol: RT-PCR and Quantitative RT-PCR: Total RNA was prepared with the RNeasy mini kit (QIAGEN) and treated with DNase (QIAGEN). 1 μg RNA was reverse transcribed into cDNA via Oligo (dT) with Superscript III Reverse Transcriptase (Invitrogen). Real-time quantitative PCR was done in triplicate with iQ SYBR Green SuperMix (Bio-Rad). RT-PCR was done with Gotaq Master Mix (Promega) and then subjected to 2% agarose gel electrophoresis. ACTB was used as an endogenous control. To test whether induction of cardiomyocyte differentiation by GSK3 inhibitors requires β-catenin, the inventors treated the shcat-2 and scramble 19-9-11 lines with CH in mTeSR1 medium. While the shcat-2 line maintained an undifferentiated morphology, the scramble line appeared to undergo differentiation (FIG. 2E), similar to non-transduced lines treated with CH (FIGS. 1B and 2B). Induction of differentiation following CH treatment in the scramble control was further indicated by diminished SOX2 and NANOG expression at day 4 (FIG. 3C). […] After 4 days of CH treatment in mTeSR1, the percentage of cells expressing Oct4 decreased to 61% in the scramble line, while 98% of the shcat-2 cells expressed Oct4 (FIG. 3D). […] To better understand early mesoderm induction via GSK3 inhibition, the inventors analyzed expression of the early mesoderm gene T in scramble and shcat-2 19-9-11 lines. As CH concentration increased, the ratio of T expression in scramble to the shcat-2 line increased (FIG. 3E). Less than 2% of shcat-2 cells expressed brachyury upon exposure to different concentrations of CH treatment for 4 days.

[4] = 12 μM CH, dox added 36 hours following initiation of differentiation, day 15

SMILES: Cc1c[nH]c(-c2cnc(NCCNc3ccc(C#N)cn3)nc2-c2ccc(Cl)cc2Cl)n1 [CH]
- purity of cardiomyocytes ([1]; 12 μM CH followed by dox treatment at 36 hours, >50 independent experiments): > 90%
- cTNT+ cells [1, 4]: 95%
- yield of cTNT+ cells [1, 4]: approximately 15 cTNT+ cells per input iPSC
- CH concentration that produced the most cTNT+ cells at day 15 ([1]; 19-9-11 ishcat-1 line, without dox-induced β-catenin knockdown): 12 µM
- brachyury+ cells ([2]; scramble line, 15 μM CH for 4 days): 76%
- cells expressing Oct4 ([2]; scramble line): 61%
- cells expressing Oct4 ([2]; shcat-2 cells): 98%
- cells expressing brachyury ([2]; shcat-2 cells, different concentrations of CH for 4 days): Less than 2%
- expression of mesendoderm and early mesoderm genes MIXL1, GSC, T, WNT3A and MSX1 ([3]; 12 μM CH for 4 days, scramble versus shcat-2): emerged in CH-treated scramble cells but not CH-treated shcat-2 cells
- ratio of T expression in scramble to the shcat-2 line ([3]; increasing CH concentration, 2 days, qPCR): increased
- SOX2 and NANOG expression ([3]; scramble control, CH treatment, day 4): diminished
- SOX2 and NANOG expression ([3]; shcat-2 cells treated with CH): No significant differences
